Test results as given in patent US7575930B2, “Method for analyzing oligosaccharides from blood plasma” (priority 2005, dated 2009).

Tests used:
[1] = Monitoring of the plasma concentration of 3 octasaccharides in beagle dogs after subcutaneous administration (plasma filtration + anion-exchange HPLC); type: in vivo, male dogs of the beagle breed; details: 0.5 mg/kg each
Procedure: A plasma sample with a volume of between 100 and 1000 μl is withdrawn and, if appropriate, the internal standard is added to the latter.
After homogenization, the resulting solution is introduced into a 30 kD Ultrafree 05 ultrafiltration cartridge (Millipore) rinsed beforehand with 250 μl of water by centrifuging at 10 000 rev/min for 5 minutes. The plasma is introduced into the upper part of the cartridge once or twice, if the amounts to be filtered are greater than 500 μl.
The cartridge is centrifuged at 10 000 rev/min for between 1 and 2 hours and then the filtrate is withdrawn. If appropriate, the second part of the plasma to be filtered is introduced into the upper part of the cartridge and the latter is again centrifuged. The exact amount of plasma introduced will have been weighed. The cartridge is centrifuged until the protein residue in the upper part of the cartridge represents no more than approximately 10% of the initial part.
The filtrate is withdrawn and 210 μl of 3M KCl per ml of plasma filtered are added to the concentrate.
After homogenization, the cartridge is centrifuged at 10 000 rev/min for between 1 and 4 hours. The cartridge is centrifuged until the protein residue in the upper part of the cartridge represents no more than approximately 10% of the initial part.
The second filtrate is withdrawn and 210 μl of 3M KCl per ml of plasma filtered are added a second time to the concentrate.
The third filtrate is withdrawn and 250 μl of water per ml of plasma filtered are added.
The filtrates are combined and diluted 5 fold in water, and the whole is injected directly in anion-exchange HPLC. Immediately before injection, the pH of the injected solution is adjusted to 3 by addition of 1N HCl.
The filtered plasma is analyzed by anion-exchange HPLC.
The columns used are IonPAc As11 columns (Dionex), with a length of 25 cm and an internal diameter of 2 mm. The detector used is a UV spectrophotometer equipped with an array of diodes.
The whole of the […] is injected after adjustment of the pH to 3 by addition of N HCl. The flow rate chosen is 0.22 ml/min; the column temperature is 40° C.
Elution is carried out in gradient mode. The two solutions used are:
Solvent A: NaH2PO4 2.5 mM, brought to pH 2.9 by addition of H3PO4
Solvent B: NaClO4 1N, NaH2PO4 2.5 mM, brought to pH 3.0 by addition of H3PO4
The elution gradient is as follows:
T=0 min: % B=3; T=40 min: % B=60; T=60 min: % B=80
The evolution of a mixture of three octasaccharides in the blood of male dogs of the beagle breed is monitored. These 3 octasaccharides, symbolized ΔIIaIIsIsIs, ΔIsIIaIIsIs and ΔIIaIIsIsIs^1,6-anhydro, are the main affinity octasaccharides of the octasaccharide fractions of Lovenox®.
The mixture is administered subcutaneously to 3 male dogs of the beagle breed at a target dose with regard to each of these 3 constituents of 0.5 mg/kg. The administration solution is a 0.9% NaCl solution of the mixture of the 3 octasaccharides at the target concentration of 0.5 mg/ml. Blood samples of 5 ml are withdrawn at the times 0, 0.25 h, 0.5 h, 1 h, 2 h, 4 h, 6 h, 8 h, 24 h, 30 h and 48 h after administration. The blood samples withdrawn are collected in tubes containing 400 μl of a CTAD (citrate, theophylline, adenosine, dipyridamole) mixture. After homogenization, the solution is centrifuged at 3000 g at 15° C. for 15 min. The plasma supernatant is recovered and stored at −20° C. until use.
For the treatment of the plasma before HPLC injection, approximately 1 ml of plasma is withdrawn and weighed, to which 50 μl of a solution of the internal standard at a concentration of approximately 0.02 g/l are added.
The internal standard is chosen so that it is structurally as close as possible to the products to be analyzed. Its structure is given below.
The tetrasaccharide used makes it possible to correct the potentional influence of the variations in the extraction yield.
The plasma is treated and analyzed by HPLC.

ATIII = ATIII (Homo sapiens, UniProt P01008); test: Affinity for ATIII; type: binding
Sequence of ATIII (P01008 33-464, species assumed): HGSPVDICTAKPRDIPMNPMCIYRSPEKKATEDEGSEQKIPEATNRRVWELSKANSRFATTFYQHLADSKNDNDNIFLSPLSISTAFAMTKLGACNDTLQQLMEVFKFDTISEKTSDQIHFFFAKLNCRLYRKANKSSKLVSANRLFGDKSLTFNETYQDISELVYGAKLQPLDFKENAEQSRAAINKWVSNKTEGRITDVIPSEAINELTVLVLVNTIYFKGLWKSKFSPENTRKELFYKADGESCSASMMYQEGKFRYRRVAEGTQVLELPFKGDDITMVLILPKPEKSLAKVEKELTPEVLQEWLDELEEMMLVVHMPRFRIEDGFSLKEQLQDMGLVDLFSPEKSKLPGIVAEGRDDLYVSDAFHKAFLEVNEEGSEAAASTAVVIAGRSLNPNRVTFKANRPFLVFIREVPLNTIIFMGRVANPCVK

[2] = Dog 1, 0 h after subcutaneous administration
[3] = Dog 1, 0.25 h after subcutaneous administration
[4] = Dog 1, 0.5 h after subcutaneous administration
[5] = Dog 1, 1 h after subcutaneous administration
[6] = Dog 1, 2 h after subcutaneous administration
[7] = Dog 1, 4 h after subcutaneous administration
[8] = Dog 1, 6 h after subcutaneous administration
[9] = Dog 1, 8 h after subcutaneous administration
[10] = Dog 1, 24 h after subcutaneous administration
[11] = Dog 1, 30 h after subcutaneous administration
[12] = Dog 1, 48 h after subcutaneous administration
[13] = Dog 2, 0 h after subcutaneous administration
[14] = Dog 2, 0.25 h after subcutaneous administration
[15] = Dog 2, 0.5 h after subcutaneous administration
[16] = Dog 2, 1 h after subcutaneous administration
[17] = Dog 2, 2 h after subcutaneous administration
[18] = Dog 2, 4 h after subcutaneous administration
[19] = Dog 2, 6 h after subcutaneous administration
[20] = Dog 2, 8 h after subcutaneous administration
[21] = Dog 2, 24 h after subcutaneous administration
[22] = Dog 2, 30 h after subcutaneous administration
[23] = Dog 2, 48 h after subcutaneous administration
[24] = Dog 3, 0 h after subcutaneous administration
[25] = Dog 3, 0.25 h after subcutaneous administration
[26] = Dog 3, 0.5 h after subcutaneous administration
[27] = Dog 3, 1 h after subcutaneous administration
[28] = Dog 3, 2 h after subcutaneous administration
[29] = Dog 3, 4 h after subcutaneous administration
[30] = Dog 3, 6 h after subcutaneous administration
[31] = Dog 3, 8 h after subcutaneous administration
[32] = Dog 3, 24 h after subcutaneous administration
[33] = Dog 3, 30 h after subcutaneous administration
[34] = Dog 3, 48 h after subcutaneous administration

A plasma concentration [1, 2] of 0.00 µmol/L, a plasma concentration [1, 3] of 0.05 µmol/L and a plasma concentration [1, 4] of 0.17 µmol/L were found for `CC(=O)N[C@H]1[C@@H](O[C@H]2[C@H](O)[C@@H](O)[C@H](O[C@H]3[C@H](OS(=O)(=O)O)[C@@H](NS(=O)(=O)O)[C@@H](O[C@H]4[C@H](O)[C@@H](OS(=O)(=O)O)[C@H](O[C@H]5[C@H](O)[C@@H](NS(=O)(=O)O)[C@@H](O[C@H]6[C@H](O)[C@@H](OS(=O)(=O)O)[C@H](O[C@H]7[C@H](O)C(NS(=O)(=O)O)[C@@H]8OC[C@H]7O8)O[C@H]6C(=O)O)O[C@@H]5COS(=O)(=O)O)O[C@H]4C(=O)O)O[C@@H]3COS(=O)(=O)O)O[C@@H]2C(=O)O)O[C@H](COS(=O)(=O)O)[C@@H](O[C@@H]2OC(C(=O)O)=C[C@H](O)[C@H]2O)[C@@H]1O` (some centres unmarked) [ΔIIaIIsIsIs^1,6-anhydro] in this work. The plasma concentration [1, 5] was 0.34 µmol/L, the plasma concentration [1, 6] was 0.56 µmol/L and the plasma concentration [1, 7] was 0.44 µmol/L. For the same compound, the plasma concentration [1, 8] was 0.37 µmol/L, the plasma concentration [1, 9] was 0.30 µmol/L and the plasma concentration [1, 10] was 0.06 µmol/L. It also gave a plasma concentration [1, 11] of 0.03 µmol/L, a plasma concentration [1, 12] of 0.01 µmol/L and a plasma concentration [1, 13] of 0.00 µmol/L. For the same compound, the plasma concentration [1, 14] was 0.05 µmol/L, the plasma concentration [1, 15] was 0.10 µmol/L and the plasma concentration [1, 16] was 0.21 µmol/L. For the same compound, the plasma concentration [1, 17] was 0.32 µmol/L, the plasma concentration [1, 18] was 0.30 µmol/L and the plasma concentration [1, 19] was 0.37 µmol/L. It also gave a plasma concentration [1, 20] of 0.25 µmol/L, a plasma concentration [1, 21] of 0.05 µmol/L and a plasma concentration [1, 22] of 0.03 µmol/L. It also gave a plasma concentration [1, 23] of 0.01 µmol/L, a plasma concentration [1, 24] of 0.00 µmol/L and a plasma concentration [1, 25] of 0.06 µmol/L. For the same compound, the plasma concentration [1, 26] was 0.17 µmol/L, the plasma concentration [1, 27] was 0.24 µmol/L and the plasma concentration [1, 28] was 0.34 µmol/L. For the same compound, the plasma concentration [1, 29] was 0.46 µmol/L, the plasma concentration [1, 30] was 0.38 µmol/L and the plasma concentration [1, 31] was 0.30 µmol/L. It also gave a plasma concentration [1, 32] of 0.05 µmol/L, a plasma concentration [1, 33] of 0.04 µmol/L and a plasma concentration [1, 34] of 0.01 µmol/L. For the same compound, the “affinity for ATIII” value (ATIII) was “high affinity for ATIII”.
A plasma concentration [1, 2] of 0.00 µmol/L, a plasma concentration [1, 3] of 0.01 µmol/L and a plasma concentration [1, 4] of 0.07 µmol/L were found for `CC(=O)NC1C(OC2C(C(=O)O)OC(OC3C(COS(=O)(=O)O)OC(OC4C(C(=O)O)OC(OC5C(COS(=O)(=O)O)OC(O)C(NS(=O)(=O)O)C5O)C(OS(=O)(=O)O)C4O)C(NS(=O)(=O)O)C3OS(=O)(=O)O)C(O)C2O)OC(COS(=O)(=O)O)C(OC2OC(C(=O)O)C(OC3OC(COS(=O)(=O)O)C(OC4OC(C(=O)O)=CC(O)C4OS(=O)(=O)O)C(O)C3NS(=O)(=O)O)C(O)C2O)C1O` (centres unmarked) [ΔIsIIaIIsIs] in this work. The plasma concentration [1, 5] was 0.16 µmol/L, the plasma concentration [1, 6] was 0.33 µmol/L and the plasma concentration [1, 7] was 0.27 µmol/L. It also gave a plasma concentration [1, 8] of 0.22 µmol/L, a plasma concentration [1, 9] of 0.18 µmol/L and a plasma concentration [1, 10] of 0.04 µmol/L. For the same compound, the plasma concentration [1, 11] was 0.02 µmol/L, the plasma concentration [1, 12] was 0.00 µmol/L and the plasma concentration [1, 13] was 0.00 µmol/L. The plasma concentration [1, 14] was 0.03 µmol/L, the plasma concentration [1, 15] was 0.06 µmol/L and the plasma concentration [1, 16] was 0.11 µmol/L. It also gave a plasma concentration [1, 17] of 0.20 µmol/L, a plasma concentration [1, 18] of 0.18 µmol/L and a plasma concentration [1, 19] of 0.23 µmol/L. For the same compound, the plasma concentration [1, 20] was 0.15 µmol/L, the plasma concentration [1, 21] was 0.03 µmol/L and the plasma concentration [1, 22] was 0.02 µmol/L. The plasma concentration [1, 23] was 0.00 µmol/L, the plasma concentration [1, 24] was 0.00 µmol/L and the plasma concentration [1, 25] was 0.02 µmol/L. The plasma concentration [1, 26] was 0.09 µmol/L, the plasma concentration [1, 27] was 0.13 µmol/L and the plasma concentration [1, 28] was 0.19 µmol/L. For the same compound, the plasma concentration [1, 29] was 0.28 µmol/L, the plasma concentration [1, 30] was 0.23 µmol/L and the plasma concentration [1, 31] was 0.19 µmol/L. For the same compound, the plasma concentration [1, 32] was 0.03 µmol/L, the plasma concentration [1, 33] was 0.02 µmol/L and the plasma concentration [1, 34] was 0.00 µmol/L. For the same compound, the “affinity for ATIII” value (ATIII) was “high affinity for ATIII”.
